Laboratory results published in ChEMBL document CHEMBL4680201, “Design, synthesis, and pharmacological evaluation of 4- or 6-phenyl-pyrimidine derivatives as novel and selective Janus kinase 3 inhibitors” (Eur J Med Chem, 2020).
Active and inactive are the calls of the source. No cut-off for these calls is given here.

How the values were obtained:
[1] = target: BLK (Tyrosine-protein kinase Blk) (Homo sapiens, UniProt P51451); assay: Inhibition of recombinant human His-tagged full length BLK expressed in baculovirus expression system at 100 nM using Tyr01 peptide as substrate incubated for 1 hr in presence of ATP by Z'-LYTE assay relative to control; conditions: probe Tyr01 peptide
[2] = Cytotoxicity against resting mouse T cells assessed as reduction in cell viability at 10 uM measured after 72 hrs by MTS assay; format: cell-based
[3] = target: T1, Tyrosine-protein kinase JAK3 (Homo sapiens) (UniProt P52333); assay: Inhibition of recombinant human GST-tagged JAK3 catalytic domain (781 to 1124 residues) expressed in baculovirus expression system using Tyr06 peptide as substrate at 100 nM incubated for 1 hr by Z'lyte assay relative to control
T1 sequence (whole entry): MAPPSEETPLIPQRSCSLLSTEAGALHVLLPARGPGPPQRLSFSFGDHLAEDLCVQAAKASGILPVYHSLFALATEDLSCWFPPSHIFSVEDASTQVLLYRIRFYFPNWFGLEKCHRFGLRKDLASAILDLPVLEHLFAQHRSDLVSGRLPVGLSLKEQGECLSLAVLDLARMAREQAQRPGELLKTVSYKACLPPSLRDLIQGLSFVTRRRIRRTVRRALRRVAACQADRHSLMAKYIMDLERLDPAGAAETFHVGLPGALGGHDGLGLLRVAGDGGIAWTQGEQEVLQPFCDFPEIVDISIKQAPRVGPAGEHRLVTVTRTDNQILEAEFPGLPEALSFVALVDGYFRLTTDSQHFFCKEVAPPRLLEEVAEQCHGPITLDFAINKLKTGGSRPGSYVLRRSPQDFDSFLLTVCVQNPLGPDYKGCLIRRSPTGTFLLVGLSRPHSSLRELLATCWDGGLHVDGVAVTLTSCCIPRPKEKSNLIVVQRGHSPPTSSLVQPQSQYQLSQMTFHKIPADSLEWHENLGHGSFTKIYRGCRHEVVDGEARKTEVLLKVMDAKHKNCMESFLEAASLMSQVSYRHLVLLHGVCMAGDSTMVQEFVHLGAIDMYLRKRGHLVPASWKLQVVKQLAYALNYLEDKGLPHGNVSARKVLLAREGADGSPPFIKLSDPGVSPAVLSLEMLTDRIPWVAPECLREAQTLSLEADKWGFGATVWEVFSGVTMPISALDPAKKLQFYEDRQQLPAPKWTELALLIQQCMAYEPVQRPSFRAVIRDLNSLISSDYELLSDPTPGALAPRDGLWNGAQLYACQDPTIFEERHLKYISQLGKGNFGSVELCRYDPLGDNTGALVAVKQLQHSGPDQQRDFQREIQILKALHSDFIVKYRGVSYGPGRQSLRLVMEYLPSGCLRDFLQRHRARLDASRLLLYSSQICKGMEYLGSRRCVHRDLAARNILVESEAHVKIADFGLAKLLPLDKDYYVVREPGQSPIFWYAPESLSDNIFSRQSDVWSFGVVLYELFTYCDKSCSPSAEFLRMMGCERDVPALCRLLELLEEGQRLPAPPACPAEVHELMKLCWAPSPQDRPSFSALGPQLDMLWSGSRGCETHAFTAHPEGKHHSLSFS

[4] = target: T2, Tyrosine-protein kinase JAK3 (Homo sapiens, UniProt P52333)
T2 sequence (P52333 whole entry): T1 sequence (whole entry)

[5] = target: T1, Tyrosine-protein kinase JAK3 (Homo sapiens); assay: Irreversible inhibition of recombinant human GST-tagged JAK3 cytoplasmic domain (781 to 1124 residues) expressed in baculovirus expression system at IC90 using TK-substrate-biotin preincubated for 30 mins followed by 1000 fold dilution and measured after 24 hrs by HTRF assay; conditions: time 24.5 hrs
[6] = Plasma clearance in ICR mouse at 30 mg/kg, po administered as single dose via gavage by LC-MS/MS analysis; format: ADME, organism-based; conditions: in vivo
Mus musculus [7] = assay: Immunosuppressive activity in Balb/c mouse model of oxazolone-induced delayed type hypersensitivity assessed as reduction in ear swelling at 30 mg/kg, po measured after 7 days; format: functional, organism-based; conditions: time 7.0 day
Mus musculus [8] = assay: Immunosuppressive activity in Balb/c mouse model of oxazolone-induced delayed type hypersensitivity assessed as reduction in neutrophil leukocyte infiltration at 30 mg/kg, po measured after 7 days by H and E staining based histopathological analysis; format: functional, organism-based; conditions: time 7.0 day
[9] = AUC (0 to infinity) in ICR mouse at 30 mg/kg, po administered as single dose via gavage by LC-MS/MS analysis; format: ADME, organism-based; parameters: time infinity, route oral, dose 30 mg/kg; conditions: in vivo
[10] = MRT (0 to infinity) in ICR mouse at 30 mg/kg, po administered as single dose via gavage by LC-MS/MS analysis; format: ADME, organism-based; conditions: in vivo
[11] = target: T3, BMX (Cytoplasmic tyrosine-protein kinase BMX) (Homo sapiens, UniProt P51813); assay: Inhibition of recombinant human His-tagged full length BMX expressed in baculovirus expression system at 100 nM using Tyr 01 as substrate incubated for 60 mins by Z'-Lyte assay relative to control; conditions: probe Tyr 01
T3 sequence (P51813 whole entry): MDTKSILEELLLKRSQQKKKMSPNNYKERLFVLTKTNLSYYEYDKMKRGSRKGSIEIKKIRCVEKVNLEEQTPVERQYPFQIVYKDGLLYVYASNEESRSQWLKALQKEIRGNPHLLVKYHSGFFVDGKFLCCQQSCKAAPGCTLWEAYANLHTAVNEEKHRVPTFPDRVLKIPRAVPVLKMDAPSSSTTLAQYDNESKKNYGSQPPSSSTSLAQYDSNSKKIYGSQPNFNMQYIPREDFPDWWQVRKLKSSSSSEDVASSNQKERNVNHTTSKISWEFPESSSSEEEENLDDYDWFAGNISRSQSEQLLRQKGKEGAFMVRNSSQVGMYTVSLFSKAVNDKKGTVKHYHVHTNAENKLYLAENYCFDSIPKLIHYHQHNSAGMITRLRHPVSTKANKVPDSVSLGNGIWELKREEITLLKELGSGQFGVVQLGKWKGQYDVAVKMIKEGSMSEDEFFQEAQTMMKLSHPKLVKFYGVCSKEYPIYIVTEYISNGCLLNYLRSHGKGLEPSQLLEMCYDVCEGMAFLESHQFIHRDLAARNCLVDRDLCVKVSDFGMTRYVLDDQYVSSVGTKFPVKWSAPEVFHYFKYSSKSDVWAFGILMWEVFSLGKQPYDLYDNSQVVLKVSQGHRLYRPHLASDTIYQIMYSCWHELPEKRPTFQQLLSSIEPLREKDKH

Sequence of BLK (Tyrosine-protein kinase Blk) (P51451 whole entry): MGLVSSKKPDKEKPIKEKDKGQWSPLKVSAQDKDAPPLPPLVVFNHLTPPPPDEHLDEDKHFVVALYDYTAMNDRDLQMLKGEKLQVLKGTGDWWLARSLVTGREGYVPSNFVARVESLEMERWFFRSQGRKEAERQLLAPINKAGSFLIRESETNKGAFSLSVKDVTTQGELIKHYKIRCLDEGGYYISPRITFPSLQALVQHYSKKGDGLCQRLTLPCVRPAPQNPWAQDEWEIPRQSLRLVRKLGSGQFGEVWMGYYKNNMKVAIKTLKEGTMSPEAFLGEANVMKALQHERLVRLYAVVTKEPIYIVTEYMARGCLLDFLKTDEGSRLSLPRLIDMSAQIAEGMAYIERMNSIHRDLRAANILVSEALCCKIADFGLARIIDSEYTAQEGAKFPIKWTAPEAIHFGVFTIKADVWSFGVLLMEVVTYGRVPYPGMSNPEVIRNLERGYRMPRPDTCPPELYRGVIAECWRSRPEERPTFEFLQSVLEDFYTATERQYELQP

## C=CC(=O)Nc1ccc(-c2ccnc(Nc3ccc(N4CCOCC4)cc3)n2)cc1
[1]
  inhibition at 1 h, 0.1 µM: 20.6%
[2]
  Activity: Non-Toxic
[3]
  inhibition: 100%
[4]
  IC50: 1.7 nM
[5]
  inhibition: Active
[6]
  CLz/F: 1619 mL/min/kg
Mus musculus [7]
  Activity: Active
Mus musculus [8]
  Activity: Active
[9]
  AUC: 897.12 ng·h/mL
[10]
  MRT inf: 1.42 h
[11]
  inhibition at 1 h, 0.1 µM: 3.7%
